Experimental data: US20210395239A1 (Hoffmann-La Roche Inc., priority 2018, published 2021)

biological target: T1, human TLR8 (Homo sapiens, UniProt Q9NR97); test: HEK293-Blue-hTLR-8 cells assay (SEAP reporter, R848 stimulation); format: cell-based; details: HEK293-Blue-hTLR8 cells, R848, 20 hrs; read-out: HEK/hTLR8 IC50
T1 construct: host or cells: HEK293 (HEK-Blue hTLR8)
T1 sequence (Q9NR97 27-1041): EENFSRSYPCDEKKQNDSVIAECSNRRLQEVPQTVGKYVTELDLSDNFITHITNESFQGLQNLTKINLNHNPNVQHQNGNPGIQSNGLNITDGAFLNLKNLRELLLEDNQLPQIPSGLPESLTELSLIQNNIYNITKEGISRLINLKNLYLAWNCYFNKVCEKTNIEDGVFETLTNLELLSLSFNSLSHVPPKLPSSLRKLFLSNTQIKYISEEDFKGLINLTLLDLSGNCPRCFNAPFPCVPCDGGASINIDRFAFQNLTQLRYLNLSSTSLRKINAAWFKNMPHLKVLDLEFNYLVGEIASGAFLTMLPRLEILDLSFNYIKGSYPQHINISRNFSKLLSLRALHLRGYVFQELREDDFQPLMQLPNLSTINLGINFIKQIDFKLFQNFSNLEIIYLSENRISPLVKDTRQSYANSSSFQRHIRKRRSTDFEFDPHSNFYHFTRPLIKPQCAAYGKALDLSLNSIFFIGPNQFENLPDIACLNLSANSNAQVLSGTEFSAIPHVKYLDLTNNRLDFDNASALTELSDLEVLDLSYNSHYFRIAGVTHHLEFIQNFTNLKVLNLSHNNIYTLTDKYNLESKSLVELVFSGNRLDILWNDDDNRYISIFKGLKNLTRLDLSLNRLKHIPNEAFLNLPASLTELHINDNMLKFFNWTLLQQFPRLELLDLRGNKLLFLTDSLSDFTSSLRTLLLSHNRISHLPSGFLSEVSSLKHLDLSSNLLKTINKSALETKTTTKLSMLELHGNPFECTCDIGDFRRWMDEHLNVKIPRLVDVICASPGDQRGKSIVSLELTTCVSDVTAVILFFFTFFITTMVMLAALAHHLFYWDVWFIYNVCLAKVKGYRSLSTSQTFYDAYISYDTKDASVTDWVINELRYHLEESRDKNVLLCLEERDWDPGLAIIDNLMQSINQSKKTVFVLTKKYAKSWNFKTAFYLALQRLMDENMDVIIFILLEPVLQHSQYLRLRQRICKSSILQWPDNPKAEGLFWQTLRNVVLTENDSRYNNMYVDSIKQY
Procedure, shortened: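 HEK293-Blue-hTLR8 cells (NF-κB/AP-1-driven SEAP) incubated 20 h at 37° C with serially diluted compound (1% DMSO) plus R848 stimulation. Supernatant SEAP measured with QUANTI-Blue, 2 h at 37° C, absorbance 620–655 nm.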

Going from `Cc1cc(N2CCN(C[C@H]3CN(c4ccc(C#N)c5ncccc45)C[C@@H](C)O3)CC2)nc(N2CC(N)C(F)(F)C2)n1` (stereo partly drawn) [Example 63, 5-[(2S,6R)-2-[[4-[2-(4-amino-3,3-difluoro-pyrrolidin-1-yl)-6-methyl-pyrimidin-4-yl]piperazin-1-yl]methyl]-6-methyl-morpholin-4-yl]quinoline-8-carbonitrile] to `Cc1cc(N2CCN(C[C@H]3CN(c4ccc(C#N)c5ncccc45)C[C@@H](C)O3)CC2)nc(N2CCNCC(O)C2)n1` (stereo partly drawn) [Example 66, 5-[(2S,6R)-2-[[4-[2-(6-hydroxy-1,4-diazepan-1-yl)-6-methyl-pyrimidin-4-yl]piperazin-1-yl]methyl]-6-methyl-morpholin-4-yl]quinoline-8-carbonitrile], the IC50 falls from 13 nM to 8 nM (1.6-fold).

`C[C@@H]1CN(c2ccc(C#N)c3ncccc23)C[C@H](CN2CCN(c3nc(N4CCNCC4)ncc3F)CC2)O1` [Example 45, 5-[(2S,6R)-2-[[4-(5-fluoro-2-piperazin-1-yl-pyrimidin-4-yl)piperazin-1-yl]methyl]-6-methyl-morpholin-4-yl]quinoline-8-carbonitrile] and `C[C@@H]1CN(c2ccc(C#N)c3ncccc23)C[C@H](CN2CCN(c3ncc(C#N)c(N4CCNCC4)n3)CC2)O1` [Example 51, 5-[(2S,6R)-2-[[4-(5-cyano-4-piperazin-1-yl-pyrimidin-2-yl)piperazin-1-yl]methyl]-6-methyl-morpholin-4-yl]quinoline-8-carbonitrile] are within 1.5-fold of each other in IC50: 4 nM for the first, 3 nM for the second.

`C[C@@H]1CN(c2ccc(C#N)c3ncccc23)C[C@H](CN2CCN(c3cccc(NC4CNC4)n3)CC2)O1` [Example 38] and `C[C@@H]1CN(c2ccc(C#N)c3ncccc23)C[C@H](CN2CCN(c3cccc(N4CCC(N)CC4)n3)CC2)O1` [Example 36, 5-[(2S,6R)-2-[[4-[6-(4-amino-1-piperidyl)-2-pyridyl]piperazin-1-yl]methyl]-6-methyl-morpholin-4-yl]quinoline-8-carbonitrile] are the same in IC50: 11 nM for the first, 11 nM for the second.

First: C[C@@H]1CN(c2ccc(C#N)c3ncccc23)C[C@H](CN2CCN(c3cc(N4CCNCC4)ncn3)CC2)O1 [Example 18, 5-[(2R,6S)-2-methyl-6-[[4-(6-piperazin-1-ylpyrimidin-4-yl)piperazin-1-yl]methyl]morpholin-4-yl]quinoline-8-carbonitrile]
Second: C[C@@H]1CN(c2ccc(C#N)c3ncccc23)C[C@H](CN2CCN(c3cncc(N4CCNCC4)c3)CC2)O1 [Example 7, 5-[(2R,6S)-2-methyl-6-[[4-(5-piperazin-1-yl-3-pyridyl)piperazin-1-yl]methyl]morpholin-4-yl]quinoline-8-carbonitrile]
The IC50 of the first is 1.5-fold lower: 6 nM for the first, 9 nM for the second.

Compared with `C[C@@H]1CN(c2ccc(C#N)c3ncccc23)C[C@H](CN2CCN(c3ccnc(N4CCN(C(=O)[C@@H]5CCCN5)CC4)n3)CC2)O1` [Example 31, 5-[(2R,6S)-2-methyl-6-[[4-[2-[4-[(2S)-pyrrolidine-2-carbonyl]piperazin-1-yl]pyrimidin-4-yl]piperazin-1-yl]methyl]morpholin-4-yl]quinoline-8-carbonitrile], `C[C@@H]1CN(c2ccc(C#N)c3ncccc23)C[C@H](CN2CCN(c3ccnc(N4CCN(C)CC4)n3)CC2)O1` [Example 22, 5-((2R,6S)-2-methyl-6-((4-(2-(4-methylpiperazin-1-yl)pyrimidin-4-yl)piperazin-1-yl)methyl)morpholino)quinoline-8-carbonitrile] is 1.7-fold lower in IC50: 5 nM for the first, 3 nM for the second.

Compared with `C[C@@H]1CN(c2ccc(C#N)c3ncccc23)C[C@H](CN2CCN(c3ccnc(N4CCN[C@@H](CO)C4)n3)CC2)O1` [Example 29, 5-[(2S,6R)-2-[[4-[2-[(3R)-3-(hydroxymethyl)piperazin-1-yl]pyrimidin-4-yl]piperazin-1-yl]methyl]-6-methyl-morpholin-4-yl]quinoline-8-carbonitrile], `CO[C@H]1CN(c2nccc(N3CCN(C[C@H]4CN(c5ccc(C#N)c6ncccc56)C[C@@H](C)O4)CC3)n2)CC1N` (stereo in doubt) [Example 53, 5-[(2S,6R)-2-[[4-[2-[(3S,4S)-3-amino-4-methoxy-pyrrolidin-1-yl]pyrimidin-4-yl]piperazin-1-yl]methyl]-6-methyl-morpholin-4-yl]quinoline-8-carbonitrile] is 3.3-fold lower in IC50: 10 nM for the first, 3 nM for the second. The second is the more potent here.

Compared with `Cc1cc(N2CCN(C[C@H]3CN(c4ccc(C#N)c5nccnc45)C[C@@H](C)O3)CC2)nc(N2CCNCC2)n1` [Example 64, 8-[(2R,6S)-2-methyl-6-[[4-(6-methyl-2-piperazin-1-yl-pyrimidin-4-yl)piperazin-1-yl]methyl]morpholin-4-yl]quinoxaline-5-carbonitrile], `Cc1cc(N2CCN(C[C@H]3CN(c4ccc(C#N)c5ncccc45)C[C@@H](C)O3)CC2)nc(N2CC3(CNCCO3)C2)n1` [Example 61, 5-[(2R,6S)-2-methyl-6-[[4-[6-methyl-2-(5-oxa-2,8-diazaspiro[3.5]nonan-2-yl)pyrimidin-4-yl]piperazin-1-yl]methyl]morpholin-4-yl]quinoline-8-carbonitrile] is 1.5-fold higher in IC50: 2 nM for the first, 3 nM for the second. The first is the more potent here.

Going from `C[C@@H]1CN(c2cc(=O)n(C)c3ncccc23)C[C@H](CN2CC(c3ccc(N4CCNCC4)cc3)C2)O1` [Example 171, 1-methyl-4-[(2R,6S)-2-methyl-6-[[3-(4-piperazin-1-ylphenyl)azetidin-1-yl]methyl]morpholin-4-yl]-1,8-naphthyridin-2-one] to `C[C@@H]1CN(c2ccc(C#N)c3ncccc23)C[C@H](CN2CCN(c3cccc(C4CNCCO4)c3)CC2)O1` (stereo partly drawn) [Example 62, 5-[(2R,6S)-2-methyl-6-[[4-(3-morpholin-2-ylphenyl)piperazin-1-yl]methyl]-morpholin-4-yl]quinoline-8-carbonitrile], the IC50 falls from 129 nM to 14 nM (9.2-fold).

`C[C@@H]1CN(c2ccc(C#N)c3ncccc23)C[C@H](CN2CCN(c3ccc(N4CC(N)C(F)C4)nc3)CC2)O1` (stereo partly drawn) [Example 44, 5-[(2S,6R)-2-[[4-[6-(3-amino-4-fluoro-pyrrolidin-1-yl)-3-pyridyl]piperazin-1-yl]methyl]-6-methyl-morpholin-4-yl]quinoline-8-carbonitrile] and `CO[C@H]1CN(c2cccc(N3CCN(C[C@H]4CN(c5ccc(C#N)c6ncccc56)C[C@@H](C)O4)CC3)n2)C[C@H]1N` [Example 42, 5-[(2S,6R)-2-[[4-[6-[(3R,4S)-3-amino-4-methoxy-pyrrolidin-1-yl]-2-pyridyl]piperazin-1-yl]methyl]-6-methyl-morpholin-4-yl]quinoline-8-carbonitrile] are within 1.5-fold of each other in IC50: 10 nM for the first, 13 nM for the second.

Compared with `C[C@@H]1CN(c2ccc(C#N)c3ncccc23)C[C@H](CN2CCN(c3nc(N4CCNCC4)nc4ccccc34)CC2)O1` [Example 49, 5-[(2R,6S)-2-methyl-6-[[4-(2-piperazin-1-ylquinazolin-4-yl)piperazin-1-yl]methyl]morpholin-4-yl]quinoline-8-carbonitrile], `C[C@@H]1CN(c2ccc(C#N)n3ncc(F)c23)C[C@H](CN2CCN(c3ccc([C@@H]4CNCCO4)cc3)CC2)O1` [Example 177, 3-fluoro-4-[(2R,6S)-2-methyl-6-[[4-[4-[(2R)-morpholin-2-yl]phenyl]piperazin-1-yl]methyl]morpholin-4-yl]pyrazolo[1,5-a]pyridine-7-carbonitrile] is 2.7-fold higher in IC50: 10 nM for the first, 27 nM for the second.
